The assay concerns the target T1, Receptor-interacting serine/threonine-protein kinase 1 (Homo sapiens, UniProt Q13546).
T1 sequence (Q13546 whole entry): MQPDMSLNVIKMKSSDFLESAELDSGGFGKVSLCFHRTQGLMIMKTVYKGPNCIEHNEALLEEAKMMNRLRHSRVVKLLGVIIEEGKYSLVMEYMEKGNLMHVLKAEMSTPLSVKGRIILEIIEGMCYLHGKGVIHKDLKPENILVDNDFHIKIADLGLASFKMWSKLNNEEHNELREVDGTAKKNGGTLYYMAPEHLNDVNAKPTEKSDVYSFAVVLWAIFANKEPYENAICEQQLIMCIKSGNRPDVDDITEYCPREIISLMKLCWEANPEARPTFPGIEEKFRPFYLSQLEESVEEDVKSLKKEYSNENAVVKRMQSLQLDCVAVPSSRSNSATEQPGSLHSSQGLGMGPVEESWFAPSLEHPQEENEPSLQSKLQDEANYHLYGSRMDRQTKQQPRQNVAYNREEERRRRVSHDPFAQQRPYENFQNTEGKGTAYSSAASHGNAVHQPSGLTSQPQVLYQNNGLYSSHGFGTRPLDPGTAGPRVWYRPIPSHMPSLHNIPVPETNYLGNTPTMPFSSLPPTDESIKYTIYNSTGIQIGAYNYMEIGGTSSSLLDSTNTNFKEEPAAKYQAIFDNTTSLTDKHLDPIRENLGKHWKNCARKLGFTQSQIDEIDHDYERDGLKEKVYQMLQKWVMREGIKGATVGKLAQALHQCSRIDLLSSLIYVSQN
As to the kind of experiment: Not found.
Source text: Not found

For the molecule `O=C(c1nc2n(n1)CC[C@H]2c1ccccc1)C1CC1` (single isomer, unassigned) [US12344612, Example 10], the Ki (as a rule, a measure of affinity in units of concentration, obtained from inhibition or displacement) amounted to 51 nM.

The values above are taken from BindingDB's records for patent US12344612 (Genentech, 2025).
